In ChEMBL document CHEMBL1201862, “PubChem BioAssay data set” (2004):
The source made the active and inactive calls.

Columns and labels:
[1] = inhibitors of firefly luciferase expression or activity, dose response, H4 neuroglioma cells, luminescence (AID 1990); type: functional, cell-based
[2] = Luminescence Cell-Based Dose Retest to Confirm Inhibitors of Cancer Stem Cells. [Related pubchem assays (depositor defined):AID2717, AID2721]; type: functional; conditions: Homo sapiens
[3] = inhibitors of SNCA 5'UTR-driven reporter translation, confirmation, H4 neuroglioma cells, luminescence (AID 1988); type: functional, cell-based
[4] = Luminescence Cell-Based Dose Response HTS to Identify Inhibitors of 5'UTR Stem-Loop Driven Prion Protein mRNA Translation in H4 Neuroglioblastoma Cells. [Related pubchem assays: 1827 (Project Summary), 1813 (Primary HTS)]; type: functional
[5] = biological target: FAD-linked sulfhydryl oxidase ALR (Homo sapiens, UniProt P55789); experiment: inhibitors of human ALR sulfhydryl oxidase, dose response, biochemical, H2O2 detection, luminescence, cherry-pick (AID 493248)
[6] = biological target: Large T antigen (Simian virus 40, UniProt P03070); type: functional, Betapolyomavirus macacae;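 also: Confirmatory-stage PubChem screen for compounds that inhibit SV40 T antigen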
[7] = biological target: T1, Rac GTPase-activating protein 1 (Homo sapiens, UniProt Q9H0H5); experiment: MgcRacGAP GTPase-activating activity inhibitors, confirmation, biochemical, ADP Hunter fluorescence, primary and confirmatory (AID 624330); type: functional
T1 sequence (Q9H0H5 whole entry): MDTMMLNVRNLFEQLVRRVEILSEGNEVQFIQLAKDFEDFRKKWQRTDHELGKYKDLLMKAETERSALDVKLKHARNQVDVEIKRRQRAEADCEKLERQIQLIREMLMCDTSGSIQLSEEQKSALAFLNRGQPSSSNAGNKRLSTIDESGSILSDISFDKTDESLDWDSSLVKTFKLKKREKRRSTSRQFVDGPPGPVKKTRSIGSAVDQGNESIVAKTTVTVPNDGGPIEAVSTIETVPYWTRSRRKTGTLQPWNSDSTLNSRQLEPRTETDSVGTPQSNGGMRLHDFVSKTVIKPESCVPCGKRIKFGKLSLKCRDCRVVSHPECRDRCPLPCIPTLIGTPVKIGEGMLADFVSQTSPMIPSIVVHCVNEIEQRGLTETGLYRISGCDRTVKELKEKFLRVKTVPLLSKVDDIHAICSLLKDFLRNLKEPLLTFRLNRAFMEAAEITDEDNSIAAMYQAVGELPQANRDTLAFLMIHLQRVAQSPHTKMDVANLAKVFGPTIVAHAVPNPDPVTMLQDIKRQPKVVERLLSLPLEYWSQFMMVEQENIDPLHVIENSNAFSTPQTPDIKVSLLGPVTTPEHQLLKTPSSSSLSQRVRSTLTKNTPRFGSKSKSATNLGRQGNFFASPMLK

[8] = biological target: Cytochrome P450 3A4 (Homo sapiens, UniProt P08684);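 also: CYP3A4 tested as one member of a cytochrome P450 panel screen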
[9] = biological target: Cytochrome P450 2D6 (Homo sapiens, UniProt P10635);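 also: CYP2D6 member of a cytochrome P450 panel assay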
[10] = biological target: Cytochrome P450 2C19 (Homo sapiens, UniProt P33261); experiment: Cytochrome panel assay with activity outcomes. Panel member name: p450-cyp2c19 Compounds with AC50 equal or less than 10 uM are considered active; type: functional; conditions: read-out: AC50
[11] = control 3'UTR Renilla luciferase suppression, dose response, counter-screen for Shn3 inhibitor project, cell-based, Clone20-Shn3RL, cherry-picked (AID 624133); type: functional
[12] = Shn3 3'UTR reporter inhibitors, dose response, cell-based, Clone20 osteoblasts, firefly luciferase, cherry-picked (AID 624132); type: functional;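 also: firefly luciferase luminescence from reporter carrying the Shn3 3'UTR in osteoblasts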
[13] = biological target: T2, Cytochrome P450 1A2 (Homo sapiens, UniProt P05177);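 also: PubChem cytochrome P450 panel assay, CYP1A2 panel member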
T2 sequence (P05177 whole entry): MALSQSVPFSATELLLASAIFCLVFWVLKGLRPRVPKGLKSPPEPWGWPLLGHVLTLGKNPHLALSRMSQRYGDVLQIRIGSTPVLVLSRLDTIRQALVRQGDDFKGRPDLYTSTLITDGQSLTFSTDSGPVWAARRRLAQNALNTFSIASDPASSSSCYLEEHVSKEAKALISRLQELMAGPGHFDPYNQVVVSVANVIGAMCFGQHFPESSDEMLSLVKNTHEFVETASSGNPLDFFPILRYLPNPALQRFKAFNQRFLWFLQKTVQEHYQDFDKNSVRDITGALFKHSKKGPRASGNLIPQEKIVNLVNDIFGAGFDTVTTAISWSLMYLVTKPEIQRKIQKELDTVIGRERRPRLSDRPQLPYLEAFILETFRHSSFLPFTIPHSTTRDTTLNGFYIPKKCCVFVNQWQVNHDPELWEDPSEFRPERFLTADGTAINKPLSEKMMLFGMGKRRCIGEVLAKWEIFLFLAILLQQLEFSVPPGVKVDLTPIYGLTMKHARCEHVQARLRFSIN

[14] = inhibitors of intracellular T. cruzi replication, confirmation, NIH3T3 host cells, beta-gal luminescence (AID 2044); type: functional, cell-based;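 also: intracellular parasites grown in NIH/3T3 mouse fibroblasts as host cells; luminescent beta-galactosidase reporter signal from transgenic T. cruzi replicating inside host cells; inhibitors lower the luminescence signal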
[15] = biological target: T3, Corticotropin-releasing factor receptor 2/Corticotropin-releasing factor-binding protein (Homo sapiens, UniProt P24387+Q13324); experiment: activators of CRF receptor 2 with binding protein – uHTS hits, confirmation (AID 602473); type: functional; conditions: read-out: EC50_Mean
T3 sequence (Q13324 whole entry): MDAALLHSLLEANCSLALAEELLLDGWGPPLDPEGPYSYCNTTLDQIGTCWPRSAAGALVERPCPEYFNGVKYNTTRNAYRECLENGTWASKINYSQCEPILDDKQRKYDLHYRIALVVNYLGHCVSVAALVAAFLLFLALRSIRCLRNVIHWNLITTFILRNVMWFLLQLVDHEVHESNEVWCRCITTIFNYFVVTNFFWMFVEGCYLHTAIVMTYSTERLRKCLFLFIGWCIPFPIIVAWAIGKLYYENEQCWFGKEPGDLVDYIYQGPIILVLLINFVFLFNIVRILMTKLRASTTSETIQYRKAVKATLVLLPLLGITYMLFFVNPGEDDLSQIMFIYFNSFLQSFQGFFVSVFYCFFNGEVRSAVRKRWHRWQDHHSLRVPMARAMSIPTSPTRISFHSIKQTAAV
T3 sequence (P24387 whole entry): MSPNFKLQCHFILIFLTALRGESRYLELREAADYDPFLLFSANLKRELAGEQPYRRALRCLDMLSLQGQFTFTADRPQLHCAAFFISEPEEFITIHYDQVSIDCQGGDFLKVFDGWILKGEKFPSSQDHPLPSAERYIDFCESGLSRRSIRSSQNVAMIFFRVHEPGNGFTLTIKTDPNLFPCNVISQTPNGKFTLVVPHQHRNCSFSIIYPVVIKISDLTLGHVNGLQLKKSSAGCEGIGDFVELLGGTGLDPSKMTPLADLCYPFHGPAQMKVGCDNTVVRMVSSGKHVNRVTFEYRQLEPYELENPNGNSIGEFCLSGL

[16] = cytotoxicity toward NIH3T3 fibroblasts, dose response, counter-screen, cell-based, ATP luminescence, mouse fibroblasts (AID 2010); type: functional;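 also: cells exposed to compound for about 90 hours before reading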

Large T antigen, sequence (P03070 whole entry): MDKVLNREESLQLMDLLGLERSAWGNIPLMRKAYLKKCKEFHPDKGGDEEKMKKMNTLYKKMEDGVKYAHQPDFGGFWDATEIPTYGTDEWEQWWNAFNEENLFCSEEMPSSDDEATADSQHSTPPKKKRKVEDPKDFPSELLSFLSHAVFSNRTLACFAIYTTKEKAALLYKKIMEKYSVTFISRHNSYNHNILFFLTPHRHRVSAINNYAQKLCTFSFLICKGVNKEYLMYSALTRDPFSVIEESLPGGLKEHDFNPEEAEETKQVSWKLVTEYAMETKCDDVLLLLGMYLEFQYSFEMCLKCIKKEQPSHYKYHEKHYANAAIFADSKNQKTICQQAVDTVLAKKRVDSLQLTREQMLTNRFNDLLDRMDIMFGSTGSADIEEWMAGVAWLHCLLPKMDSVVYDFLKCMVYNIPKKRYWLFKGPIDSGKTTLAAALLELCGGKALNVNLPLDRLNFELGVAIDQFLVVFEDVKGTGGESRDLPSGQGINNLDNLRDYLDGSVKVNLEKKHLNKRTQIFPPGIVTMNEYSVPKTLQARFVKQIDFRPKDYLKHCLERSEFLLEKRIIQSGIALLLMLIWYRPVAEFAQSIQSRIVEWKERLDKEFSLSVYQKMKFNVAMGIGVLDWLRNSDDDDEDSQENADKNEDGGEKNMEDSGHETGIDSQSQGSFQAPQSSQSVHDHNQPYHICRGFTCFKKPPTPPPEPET
Cytochrome P450 2D6, sequence (P10635 whole entry): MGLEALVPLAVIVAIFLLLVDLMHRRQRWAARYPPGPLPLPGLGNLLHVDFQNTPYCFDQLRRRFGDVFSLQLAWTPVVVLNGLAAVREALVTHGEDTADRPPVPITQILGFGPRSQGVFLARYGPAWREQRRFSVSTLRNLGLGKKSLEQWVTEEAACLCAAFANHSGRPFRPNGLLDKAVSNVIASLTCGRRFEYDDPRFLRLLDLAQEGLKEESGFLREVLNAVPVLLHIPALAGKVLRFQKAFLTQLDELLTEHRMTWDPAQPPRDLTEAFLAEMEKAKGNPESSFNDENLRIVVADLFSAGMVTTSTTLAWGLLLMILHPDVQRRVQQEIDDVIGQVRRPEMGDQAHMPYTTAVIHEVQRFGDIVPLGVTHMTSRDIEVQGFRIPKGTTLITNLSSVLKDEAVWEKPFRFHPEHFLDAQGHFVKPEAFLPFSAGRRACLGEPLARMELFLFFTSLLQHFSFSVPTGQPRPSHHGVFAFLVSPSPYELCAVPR
Cytochrome P450 3A4, sequence (P08684 whole entry): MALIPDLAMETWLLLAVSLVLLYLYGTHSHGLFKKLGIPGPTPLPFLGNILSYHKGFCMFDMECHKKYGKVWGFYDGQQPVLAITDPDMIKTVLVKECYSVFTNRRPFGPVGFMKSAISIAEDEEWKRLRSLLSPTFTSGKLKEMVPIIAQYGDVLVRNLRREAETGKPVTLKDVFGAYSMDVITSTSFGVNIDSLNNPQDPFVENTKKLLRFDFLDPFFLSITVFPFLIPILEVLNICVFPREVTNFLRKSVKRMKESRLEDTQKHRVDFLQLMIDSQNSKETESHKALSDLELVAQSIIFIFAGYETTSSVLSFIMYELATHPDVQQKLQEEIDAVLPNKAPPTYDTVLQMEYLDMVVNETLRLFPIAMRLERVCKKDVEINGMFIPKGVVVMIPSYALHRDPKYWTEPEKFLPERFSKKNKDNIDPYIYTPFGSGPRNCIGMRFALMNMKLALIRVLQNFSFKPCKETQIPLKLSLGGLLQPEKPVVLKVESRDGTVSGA
FAD-linked sulfhydryl oxidase ALR, sequence (P55789 whole entry): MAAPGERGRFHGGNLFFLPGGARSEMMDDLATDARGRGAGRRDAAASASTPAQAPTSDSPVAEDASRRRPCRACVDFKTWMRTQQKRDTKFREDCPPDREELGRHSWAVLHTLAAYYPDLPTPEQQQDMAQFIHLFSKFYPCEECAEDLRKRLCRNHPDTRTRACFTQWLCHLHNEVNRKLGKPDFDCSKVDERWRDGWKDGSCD
Cytochrome P450 2C19, sequence (P33261 whole entry): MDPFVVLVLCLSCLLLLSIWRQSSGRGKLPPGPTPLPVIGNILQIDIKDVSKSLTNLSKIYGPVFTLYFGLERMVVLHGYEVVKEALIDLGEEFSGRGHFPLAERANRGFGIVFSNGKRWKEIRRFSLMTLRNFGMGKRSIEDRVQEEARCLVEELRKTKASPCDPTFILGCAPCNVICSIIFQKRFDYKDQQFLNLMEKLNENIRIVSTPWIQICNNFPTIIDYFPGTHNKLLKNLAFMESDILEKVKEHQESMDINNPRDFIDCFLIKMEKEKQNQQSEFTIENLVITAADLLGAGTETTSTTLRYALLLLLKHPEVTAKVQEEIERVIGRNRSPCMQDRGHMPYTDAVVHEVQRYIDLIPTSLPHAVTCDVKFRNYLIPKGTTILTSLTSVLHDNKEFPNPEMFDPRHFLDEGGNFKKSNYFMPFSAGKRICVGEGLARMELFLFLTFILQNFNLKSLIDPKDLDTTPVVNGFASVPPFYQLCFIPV

COC(=O)c1c(NC(=O)COc2ccc(Cl)cc2Cl)sc2c1CC(C)(C)NC2(C)C
EC50 [1]: 8.93 µM (active) | AC50 [2]: 5.58 µM (active) | EC50 [3]: 9.53 µM (active) | EC50 [4]: > 120 µM (not active)

CC(=O)Nc1ccc(S(=O)(=O)N(Cc2cc3ccc(C)cc3nc2O)CC2CCCO2)cc1 (configuration not stated)
EC50 [1]: 16.8 µM (active) | EC50 [3]: 11.8 µM (active) | EC50 [4]: 60.6 µM (active)

Cc1cccc(C(=O)Nc2nnc(S(=O)(=O)N(C)Cc3ccco3)s2)c1
AC50 [5]: 9.45 µM (active)

COc1ccc(OC)c(C(=O)N2CCC(n3nccc3NC(=O)CC(C)C)CC2)c1
EC50 [1]: > 120 µM (not active) | EC50 [3]: > 120 µM (not active) | EC50 [4]: > 120 µM (not active)

CCN(CC)c1ccc(NC(=O)C2CC(=O)N(Cc3ccccc3)C2)cc1 (configuration not stated)
IC50 [6]: 14.5 µM (active)

COc1cc(/C=N/NC(=O)c2c(-c3ccccc3)noc2C)ccc1O
IC50 [7]: 50.2 µM (active) | IC50 [6]: 15 µM (active)

CCN(CC)c1ccc(NC(=O)C2=CC=CN3CCS(=O)(=O)N=C23)cc1
IC50 [7]: 67 µM (active) | AC50 [5]: 0.295 µM (active)

Cn1cccc1C(=O)N1CCC2(CCCN(C(c3ccccc3)c3ccccc3)C2)CC1
AC50 [8]: 6.31 µM (inconclusive) | AC50 [9]: 10 µM (inconclusive) | AC50 [10]: 39.8 µM (inconclusive)

O=C(Nc1cc(F)ccc1F)N1CCN(c2ccnc3cc(Cl)ccc23)CC1
AC50 [11]: 10.2 µM (active) | AC50 [12]: 22.8 µM (active)

Cc1[nH]n(C(N)=S)c(=O)c1/N=N/c1ccc(Cl)cc1Cl
AC50 [5]: 0.674 µM (active)

CCOc1ccccc1NC(=O)CCn1cccc1
EC50 [1]: > 120 µM (not active) | EC50 [3]: > 120 µM (not active) | EC50 [4]: > 120 µM (not active)

COc1cc(C(=O)OCC(=O)NC2CCCCCC2)ccc1OCC(C)C
AC50 [11]: 35.9 µM (active)

Cc1c(Br)c(O)c(Br)c(O)c1/C=N/n1c(S)nnc1-c1ccccc1
AC50 [5]: 4.15 µM (active)

COc1ccc(C(=O)/C=C(\C)Nc2ccc(NC(C)=O)cc2)cc1
IC50 [6]: 53.3 µM (active)

O=C(NCCN1CCOCC1)c1csc2c1CCCCC2
AC50 [13]: 20 µM (inconclusive) | AC50 [9]: 17.8 µM (inconclusive)

COc1ccc(Oc2nccc(-c3ccc(F)cc3)c2C#N)cc1
AC50 [8]: 12.6 µM (inconclusive) | AC50 [13]: 5.01 µM (inconclusive) | AC50 [9]: 0.00562 µM (inconclusive)

CN(C)/C=N/C1=NN(c2cccc(C(F)(F)F)c2)CC1
IC50 [7]: 38.3 µM (active) | IC50 [6]: 13 µM (active) | AC50 [5]: 1.5 µM (active)

CCCCCn1c(SCCCC)nc2c1c(=O)[nH]c(=O)n2C
EC50 [1]: 17.1 µM (active) | EC50 [3]: > 60 µM (not active) | EC50 [4]: > 120 µM (not active)

COc1ccc2c(c1)c(CC(=O)Nc1cc(C)ccc1C)c(C)n2C(=O)c1ccc(Cl)cc1
AC50 [11]: 13.1 µM (active) | EC50 [14]: 0.938 µM (active) | AC50 [12]: 5.69 µM (active) | EC50 [15]: > 53 µM (inactive) | EC50 [16]: > 60 µM (not active)

CN(C)C(=O)c1cn(N(C)c2ncc(C(F)(F)F)cc2Cl)c(=O)c2ccccc12
AC50 [8]: 10 µM (inconclusive) | AC50 [9]: 25.1 µM (inconclusive)

Cc1[nH]c2ccc(C(=O)N3CCCCC3)cc2c1C
AC50 [5]: 2.77 µM (active)
